Measured values as given in ChEMBL document CHEMBL1144368, “Synthesis of 15R-PGD2: a potential DP2 receptor agonist” (Bioorg Med Chem Lett, 2005).

Experiments:
Format in all cases: functional
[1] = biological target: T1, Prostaglandin D2 receptor 2 (Homo sapiens) (UniProt Q9Y5Y4); experiment: Percentage for DP2 mediated stimulation of actin polymerization in eosinophils was determined at 1 uM; (above control)
T1 sequence (whole entry): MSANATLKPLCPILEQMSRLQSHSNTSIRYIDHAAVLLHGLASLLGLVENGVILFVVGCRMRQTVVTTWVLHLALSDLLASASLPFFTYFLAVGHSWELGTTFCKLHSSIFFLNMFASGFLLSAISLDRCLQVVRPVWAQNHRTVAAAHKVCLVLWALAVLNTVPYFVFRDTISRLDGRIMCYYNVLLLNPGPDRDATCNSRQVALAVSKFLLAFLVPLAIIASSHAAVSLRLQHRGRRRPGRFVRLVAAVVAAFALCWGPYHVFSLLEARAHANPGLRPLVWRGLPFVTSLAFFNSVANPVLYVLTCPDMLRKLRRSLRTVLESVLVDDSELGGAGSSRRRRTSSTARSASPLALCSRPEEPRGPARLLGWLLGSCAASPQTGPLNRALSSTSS

[2] = biological target: T2, Prostaglandin D2 receptor (Homo sapiens) (UniProt Q13258); experiment: Effective concentration for DP1 mediated cAMP formation in platelets was determined at 1 uM
T2 sequence (whole entry): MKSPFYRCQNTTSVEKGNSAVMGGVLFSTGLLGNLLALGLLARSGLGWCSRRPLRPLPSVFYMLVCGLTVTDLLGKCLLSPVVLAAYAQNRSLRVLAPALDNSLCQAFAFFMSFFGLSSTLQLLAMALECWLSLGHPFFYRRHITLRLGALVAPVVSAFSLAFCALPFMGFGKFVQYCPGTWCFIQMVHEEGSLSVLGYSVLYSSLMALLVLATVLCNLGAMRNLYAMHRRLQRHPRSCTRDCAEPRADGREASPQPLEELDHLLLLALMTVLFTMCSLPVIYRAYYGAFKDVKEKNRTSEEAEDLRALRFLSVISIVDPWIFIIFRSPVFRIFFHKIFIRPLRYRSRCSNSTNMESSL

[3] = biological target: T3, Prostaglandin D2 receptor 2 (Homo sapiens, UniProt Q9Y5Y4); experiment: Effective concentration for DP2 mediated stimulation of actin polymerization in eosinophils
T3 sequence (Q9Y5Y4 whole entry): T1 sequence (whole entry)

[4] = biological target: T3, Prostaglandin D2 receptor 2; experiment: Effective concentration DP2 mediated expression of the adhesion molecule CD11b in eosinophils
[5] = biological target: T2, Prostaglandin D2 receptor (Homo sapiens); experiment: Effective concentration for DP1 mediated cAMP formation in platelets

Structure (SMILES)	Activity [1]	Activity [2]	EC50 [3]	EC50 [4]	EC10 [5]
CCCCC[C@@H](O)/C=C/[C@H]1C(=O)C[C@H](O)[C@@H]1C/C=C/CCCC(=O)O	83.8%	0.83 pmol			
CCCCC[C@@](C)(O)/C=C/[C@H]1C(=O)C[C@H](O)[C@@H]1C/C=C/CCCC(=O)O			3.8 nM	1.4 nM	> 10000 nM
CCCCC[C@H](O)/C=C/[C@H]1C(=O)C[C@H](O)[C@@H]1CC=CCCCC(=O)O [[3H]PGD2]	86.2%	15.5 pmol	13 nM	7 nM	11 nM
CCCCC[C@](C)(O)/C=C/[C@H]1C(=O)C[C@H](O)[C@@H]1C/C=C/CCCC(=O)O			333 nM	99 nM	2100 nM
